Results on six molecules are retold here after patent US20130109682A1, “CYCLIC ETHER COMPOUNDS USEFUL AS KINASE INHIBITORS” (NOVARTIS AG, priority 2010, published 2013).

SMILES strings stand for the structures. A value given as a limit tells only on which side of the number the result lay.

In assay [1] the test system is KMS11 (human myeloma cell line). Description: Cell proliferation assay (CellTiter-Glo), KMS11. The format is cell-based. As to conditions: Homo sapiens, KMS-11; KMS11-Luc cells. The essentials: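 KMS11 cells in IMDM with 10% FBS and sodium pyruvate, seeded at 2000 cells/well on assay day. Compound added at 2× to equal volume of cells, incubated 3 days at 37° C. Viability read by CellTiter-Glo luminescence; EC50 derived.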

The next assay concerns the target PIM2 (Homo sapiens, UniProt Q9P1W9). Description: KinaseGlo Pim2 ATP depletion assay. The format is biochemical. A digest of the protocol: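 Luminescent ATP-depletion read-out of PIM2 phosphorylating BAD peptide (RSRHSSYPAGT-OH). Final conditions: 5 nM PIM2, 4 μM ATP, 10 μM peptide, 2.5% DMSO in 50 mM HEPES pH 7.5, 5 mM MgCl2, 1 mM DTT, 0.05% BSA. Enzyme–peptide preincubated 15 min with compound; reaction run to ~50% ATP depletion.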

In another assay the target is GSK3β (Homo sapiens, UniProt P49841). Description: GSK3β ATP depletion assay. The format is biochemical. To be noted: read-out: GSK3b IC50. The essentials: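 Human GSK3β (5 nM) preincubated 15 min with 10 μM biotinylated phospho-CREB peptide in pH 7.5 Tris buffer (15 mM MgCl2, 1 mM DTT, 0.1% BSA, 2.5% DMSO). Reaction started with 2 μM ATP and run to about 50% ATP depletion. Remaining ATP measured by KinaseGlo luminescence.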

The next assay concerns the target PIM3 (Homo sapiens, UniProt Q86V86). Description: KinaseGlo Pim3 ATP depletion assay. It is filed as biochemical. The essentials:
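Kinase was preincubated 15 min with BAD peptide in HEPES pH 7.5/MgCl2/DTT/BSA before ATP was added. Final concentrations were 40 μM ATP, 100 μM BAD peptide and 2.5% DMSO, with 5 nM enzyme. The reaction ran to ~50% ATP depletion and remaining ATP was read by KinaseGlo Plus luminescence.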

A further assay addresses PIM1 (Homo sapiens, UniProt P11309). Description: KinaseGlo Pim1 ATP depletion assay. The format is biochemical. A digest of the protocol:
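2.5 nM PIM1 preincubated 15 min with compound and 40 μM BAD peptide in 50 mM HEPES pH 7.5, 5 mM MgCl2, 1 mM DTT, 0.05% BSA, 2.5% DMSO. The reaction was started with 20 μM ATP (final) and run to about 50% ATP depletion. Remaining ATP read by KinaseGlo Plus luminescence to give IC50.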

Another assay has as its target T1, hERG (Homo sapiens, UniProt Q12809).
T1 construct: host or cells: crude membrane suspension
Description: hERG binding assay ([3H] dofetilide displacement). As to conditions: dofetilide displacement; read-out: HERGdof IC50. On the procedure:
Compounds of the invention were pipetted into each well of pre-wet 96-well Millipore GF/C filter plates (#MSFCN6B50): 119 μl assay buffer, 1 μl test compound in 100% DMSO (or 100% DMSO only for total binding), 40 μl [3H] dofetilide (12.5 nM, final concentration 2.5 nM; Novartis radioisotope laboratory, East Hanover, N.J., USA, specific activity 15-45 Ci/mmol); 40 μl crude membrane suspension (ca. 15 μg protein). The final concentration of DMSO during the incubation was 0.5%. Incubations were performed at room temperature for 90 min. Non-specific binding (NSB) was defined as the binding remaining in the presence of 25 μM terfenadine (Sigma T9652). The incubations were terminated by rapid filtration on a Millipore filtration manifold, followed by three washes of 200 μA ice-cold assay buffer. The plates were left to dry overnight before adding 40 μA scintillant (MicroScint-20). The plates were then sealed (Sealing Tape SI, Nunc 236366) and read in a Wallac MicroBeta Trilux beta-counter for 1.5 min per well. Compounds were tested as 9-concentration response curves in duplicate, ranging from 30 μM to 3 nM in 1:3 dilution steps. Dilution curves were prepared in 100% DMSO. The reference compound (terfenadine) was tested as an eight-concentration response curve, ranging from 10 μM to 0.6 nM in 1:4 dilution steps.

Sequence of GSK3β (P49841 whole entry, species assumed): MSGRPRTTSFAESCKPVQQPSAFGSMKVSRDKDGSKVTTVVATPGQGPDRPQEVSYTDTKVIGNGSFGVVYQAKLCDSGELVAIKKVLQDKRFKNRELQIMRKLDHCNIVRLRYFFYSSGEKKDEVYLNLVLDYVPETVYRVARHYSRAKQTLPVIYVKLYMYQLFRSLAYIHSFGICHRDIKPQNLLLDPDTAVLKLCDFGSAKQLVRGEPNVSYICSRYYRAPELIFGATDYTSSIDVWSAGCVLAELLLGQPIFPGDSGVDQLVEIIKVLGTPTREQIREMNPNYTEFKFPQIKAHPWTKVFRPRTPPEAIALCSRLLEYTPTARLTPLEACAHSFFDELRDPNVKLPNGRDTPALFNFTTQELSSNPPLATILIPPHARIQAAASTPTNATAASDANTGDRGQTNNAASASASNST
T1 sequence (Q12809 whole entry): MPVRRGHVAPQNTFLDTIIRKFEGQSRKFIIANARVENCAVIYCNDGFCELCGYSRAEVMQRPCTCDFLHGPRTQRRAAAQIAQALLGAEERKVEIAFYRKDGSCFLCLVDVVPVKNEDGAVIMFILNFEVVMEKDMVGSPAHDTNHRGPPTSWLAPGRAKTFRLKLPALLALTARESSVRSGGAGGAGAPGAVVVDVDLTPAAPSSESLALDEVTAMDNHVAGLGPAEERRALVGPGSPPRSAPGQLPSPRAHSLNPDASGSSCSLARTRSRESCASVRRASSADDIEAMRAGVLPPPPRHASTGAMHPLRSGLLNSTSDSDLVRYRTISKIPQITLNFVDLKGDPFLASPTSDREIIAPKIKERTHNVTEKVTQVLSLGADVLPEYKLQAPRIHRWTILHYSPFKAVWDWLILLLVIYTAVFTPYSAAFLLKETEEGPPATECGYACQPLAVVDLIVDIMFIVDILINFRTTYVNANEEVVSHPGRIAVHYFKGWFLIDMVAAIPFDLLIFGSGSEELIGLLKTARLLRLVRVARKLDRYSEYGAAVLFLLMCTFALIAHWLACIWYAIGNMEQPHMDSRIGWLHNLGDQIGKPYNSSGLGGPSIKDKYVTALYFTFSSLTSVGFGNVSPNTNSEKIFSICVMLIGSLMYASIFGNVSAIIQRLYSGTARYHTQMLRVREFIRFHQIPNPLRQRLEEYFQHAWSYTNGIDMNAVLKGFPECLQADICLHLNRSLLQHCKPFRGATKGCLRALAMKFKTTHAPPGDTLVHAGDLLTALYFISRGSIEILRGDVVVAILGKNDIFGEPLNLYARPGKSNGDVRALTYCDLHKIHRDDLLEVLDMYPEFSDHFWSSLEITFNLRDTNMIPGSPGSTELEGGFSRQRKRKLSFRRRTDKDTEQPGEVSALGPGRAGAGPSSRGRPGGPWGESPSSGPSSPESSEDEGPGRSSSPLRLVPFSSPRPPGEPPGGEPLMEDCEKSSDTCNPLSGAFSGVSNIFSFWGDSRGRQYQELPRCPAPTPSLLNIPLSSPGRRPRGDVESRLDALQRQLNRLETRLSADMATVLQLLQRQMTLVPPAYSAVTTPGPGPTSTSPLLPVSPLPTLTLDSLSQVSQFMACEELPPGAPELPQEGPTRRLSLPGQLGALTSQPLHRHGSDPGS
Sequence of PIM2 (Q9P1W9 whole entry): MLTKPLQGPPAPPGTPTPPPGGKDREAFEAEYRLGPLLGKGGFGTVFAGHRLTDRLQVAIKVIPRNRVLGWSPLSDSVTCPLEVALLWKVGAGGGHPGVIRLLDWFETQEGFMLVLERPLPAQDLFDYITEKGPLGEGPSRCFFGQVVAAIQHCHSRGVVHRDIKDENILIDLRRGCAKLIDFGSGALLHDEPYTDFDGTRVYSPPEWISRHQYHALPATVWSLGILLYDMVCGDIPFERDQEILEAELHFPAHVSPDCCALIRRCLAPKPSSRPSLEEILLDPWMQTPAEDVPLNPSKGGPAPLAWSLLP
Sequence of PIM1 (P11309 whole entry): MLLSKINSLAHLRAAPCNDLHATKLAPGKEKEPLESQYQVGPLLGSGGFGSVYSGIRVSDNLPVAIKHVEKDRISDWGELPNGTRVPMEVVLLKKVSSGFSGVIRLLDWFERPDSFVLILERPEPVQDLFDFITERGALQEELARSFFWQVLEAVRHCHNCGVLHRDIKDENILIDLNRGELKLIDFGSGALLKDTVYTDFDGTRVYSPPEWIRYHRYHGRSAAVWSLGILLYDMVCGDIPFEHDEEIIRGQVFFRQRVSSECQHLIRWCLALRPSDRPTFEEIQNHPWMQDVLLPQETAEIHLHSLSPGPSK

In the case of `C[C@@H]1O[C@H](c2ccncc2NC(=O)c2ccc(F)c(-c3c(F)cccc3F)n2)C[C@H](N)[C@H]1O` [Example 115, N-(4-((2S,4S,5R,6S)-4-amino-5-hydroxy-6-methyltetrahydro-2H-pyran-2-yl)pyridin-3-yl)-6-(2,6-difluorophenyl)-5-fluoropicolinamide], it took 1300 nM to reach a half-maximal effect in assay [1] (EC50). Further, the IC50 against PIM2 is 5 nM; at GSK3β, 225 nM; against PIM3, 2 nM; on PIM1, 1 nM; at hERG it was 22000 nM.
Molecule `C[C@@H]1C[C@H](N)C[C@H](c2ccncc2NC(=O)c2csc(-c3c(F)cccc3F)n2)O1` [Example 121, N-(4-((2R,4S,6R)-4-amino-6-methyltetrahydro-2H-pyran-2-yl)pyridin-3-yl)-2-(2,6-difluorophenyl)thiazole-4-carboxamide] had an EC50 in assay [1] of 4700 nM. Moreover, the IC50 at PIM2 is 795 nM; on GSK3β, 3230 nM; against PIM3, 44 nM; against PIM1 it was 9 nM; on hERG it was 10000 nM.
In assay [1], `C[C@@H]1C[C@H](N)C[C@H](c2ccncc2NC(=O)c2ccc(F)c(-c3c(F)cccc3F)n2)O1` [Example 122, N-(4-((2R,4S,6R)-4-amino-6-methyltetrahydro-2H-pyran-2-yl)pyridin-3-yl)-6-(2,6-difluorophenyl)-5-fluoropicolinamide] returned an EC50 of 4700 nM. For the same molecule, the IC50 against PIM2 amounted to 45 nM; on GSK3β, 12300 nM; on PIM3, 10 nM; on PIM1, 2 nM; at hERG, 2000 nM.
`C[C@H]1C[C@@H](N)C[C@@H](c2ccncc2NC(=O)c2csc(-c3c(F)cccc3F)n2)O1` [Example 123, N-(4-((2S,4R,6S)-4-amino-6-methyltetrahydro-2H-pyran-2-yl)pyridin-3-yl)-2-(2,6-difluorophenyl)thiazole-4-carboxamide] yielded an EC50 in assay [1] of 4200 nM. The half-inhibitory concentration (IC50) against PIM2 was determined as 44 nM; on GSK3β it was 421 nM; on PIM3, 7 nM; against PIM1, 1 nM; at hERG, 12000 nM.
Take `C[C@H]1C[C@@H](N)C[C@@H](c2ccncc2NC(=O)c2ccc(F)c(-c3c(F)cccc3F)n2)O1` [Example 124, N-(4-((2S,4R,6S)-4-amino-6-methyltetrahydro-2H-pyran-2-yl)pyridin-3-yl)-6-(2,6-difluorophenyl)-5-fluoropicolinamide]: in assay [1], a half-maximal effect (EC50) was put at 1600 nM. Moreover, the IC50 against PIM2 worked out at 5 nM; on GSK3β, 3400 nM; against PIM3, 2 nM; against PIM1 it was 1 nM; at hERG, 3000 nM.
Take `O=C(Nc1cnccc1[C@H]1C[C@@H](O)CCO1)c1ccc(F)c(-c2c(F)cccc2F)n1` [Example 129, 6-(2,6-difluorophenyl)-5-fluoro-N-(4-((2R,4S)-4-hydroxytetrahydro-2H-pyran-2-yl)pyridin-3-yl)picolinamide]: in assay [1], the EC50 is above 10000 nM. Besides, the IC50 against PIM2 was 147 nM; on GSK3β it was 361 nM; at PIM3, 13 nM; against PIM1 it was 2 nM; at hERG it was above 30000 nM.
